Measurements as given in patent US20220073638A1, “METHODS AND PHARMACEUTICAL COMPOSITION FOR THE TREATMENT OF CANCERS RESISTANT TO IMMUNE CHECKPOINT THERAPY” (INSERM (INSTITUT NATIONAL DE LA SANTÉ ET DE LA RECHERCHE …, priority 2018, published 2022).

Test system: CD163+ TAMs
Assay type: in vivo, mouse
Description: To deplete CD163^+ TAM we generated knock-in mice expressing iCre recombinase from a Cd163-IRES-iCre transcript (CD163-iCre) and crossed them to Csflr-LSL-DTR mice that after cre-mediated deletion of LSL, have DTR expression under the control of the Csflr promotor. A single injection of 4 ng/kg diphteria toxin (DT) specifically depleted close to 50% of CD163+ TAMs after 24 hrs (data not shown). No effect, was observed on the remaining myeloid compartment except for a small increase in recruited monocytes (data not shown). Next, we attempted to achieve sustained depletion of CD163+ TAMs by repeated DT injections.

diphteria toxin [DT]
side effects of sustained depletion of CD163+ macrophages (repeated DT injections): severe side-effect | tumor growth (repeated DT injections, CD163-iCre+/-, Csf1r-LSL-DTR+/- mice compared to Csf1r-LSL-DTR wildtype mice): significantly reduced tumor growth | depletion of CD163+ TAMs (single injection of 4 ng/kg DT, after 24 hrs): ~50% | effect on the remaining myeloid compartment (single injection of 4 ng/kg DT, except for a small increase in recruited monocytes): No effect
